Data reported in patent US5574178A, “4,6-Di-t-butyl-dihydrobenzofuran-5-ol and its derivatives” (Chugai Seiyaku Kabushiki Kaisha, priority 1992, dated 1996).

Tests used:
Assay type in all cases: biochemical
[1] = target: lipid peroxidation due to the autoxidation of linoleic acid; assay: Linoleic acid-MCLA system, Test Case 4; settings: linoleic acid 10 mM, MCLA 2 μM, 1-butanol, 37° C.; read-out: 50% inhibition concentration
Experimental: The test compounds were evaluated for their inhibitory effect against lipid peroxidation due to the autoxidation of linoleic acid.
A reaction solution was prepared by mixing linoleic acid and MCLA (2-methyl-6-(p-methoxyphenyl)-3,7-dihydroimidazo[1,2-a]pyrazin-3-one) in 1-butanol and stored in ice until use. An amount of this reaction solution was sampled in a chemiluminescence measuring cell and, immediately thereafter, the intensity of chemiluminescence due to the autoxidation of linoleic acid was measured at 37° C. in a thermostatic bath. A normal chemiluminescence intensity measurement was conducted about 2-4 min later when the chemiluminescence substantially peaked.

Rabbit LDL = assay: Amount of TBARS (Cu^2+-induced oxidation of rabbit LDL); settings: 5 μM Cu^2+
Experimental: Rabbit LDL was prepared in accordance with the method of Havel et al. [Havel, R. J. et al., J. Clin. Invest., 34, (1955)]. After adding 5 μM of Cu^2+, the mixture was warmed until a thiobarbituric acid reactive substance (TBARS) was produced. The test compounds were evaluated for their anti-oxidative action with the amount of TBARS being used as an index. [formula]

[2] = tested on: xanthine oxidase (XOD)-hypoxanthine (HX) system (superoxide); assay: Xanthine oxidase system (superoxide generating system); settings: pH 7.4, 37° C.
Experimental: The test compounds were evaluated under the following conditions for their effect in a reaction due to a xanthine oxidase (XOD)-hypoxanthine (HX) system in aqueous solution.
Xanthine oxidase 0.1 U/ml
Hepes buffer solution (pH 7.4)
(§1) A reaction solution was prepared by mixing hypoxanthine and luminol in the Hepes buffer solution and stored in ice until use. After warming the reaction solution at 37° C. for about 10 min, the reaction was started by addition of the xanthine oxidase solution. A measurement was started right after the addition of xanthine oxidase and subsequent stirring; chemiluminescence intensity was normally measured right after the start of the reaction. In the experimental model, luminol-dependent chemiluminescence induced by superoxide generated by enzymatic reaction of xanthine oxidase was detected, thus enabling the measurement of the reactivity with superoxide.

[3] = tested on: lactoperoxidase reaction system (singlet oxygen); assay: Lactoperoxidase system (singlet oxygen system); settings: pH 4.5, 37° C.
Experimental: The test compounds were evaluated under the following conditions for their effect against a lactoperoxidase reaction system.
Lactoperoxidase 10 μg/ml
Acetate buffer solution (pH 4.5)
as §1, with “hydrogen peroxide, sodium bromide” for “hypoxanthine”, “acetate” for “Hepes”, “lactoperoxidase” for “xanthine oxidase”, “was” for “was normally”, “singlet oxygen” for “superoxide”, “singlet oxygen.” for “superoxide.”

Chemiluminescence intensity (% of control) ([2]; at 20 μM of compound)	Chemiluminescence intensity (% of control) ([2]; at 200 μM of compound)	Chemiluminescence intensity (% of control) ([3]; at 20 μM of compound)	Chemiluminescence intensity (% of control) ([3]; at 200 μM of compound)	Compound	IC50 [1]	TBARS produced (%) (Rabbit LDL; at 10^-5 M of compound, 10 µM)	TBARS produced (%) (Rabbit LDL; at 10^-6 M of compound, 1 µM)
				CC(C)(C)c1cc2c(c(C(C)(C)C)c1O)CC(C(C)(C)C)O2 (centres unmarked) [Compound h, 2,4,6-Tri-tert-Butyl-5-Hydroxy-2,3-Dihydrobenzofuran]	9 µM	10.6%	74.0%
				C=CCOc1cc(C(C)(C)C)c(O)c(C(C)(C)C)c1C [Compound v, 4-Allyloxy-2,6-Di-tert-Butyl-3-Methylphenol]		80.3%	99.3%
32.7 % of control	3.2 % of control	82.1 % of control	15.1 % of control	CC1Cc2c(ccc(O)c2C(C)(C)C)O1 (centres unmarked) [Comparison 2, reference compound]	54 µM		
				CC(C)(C)c1cc2occc2c(C(C)(C)C)c1O [Compound r, 4,6-Di-tert-Butyl-5-Hydroxybenzofuran]		30.1%	74.2%
				CC(C)(C)c1cc2c(c(C(C)(C)C)c1O)CC(CCl)O2 (centres unmarked) [l, 4,6-tert-Butyl-2-Chloromethyl-5-Hydroxy-2,3-Dihydrobenzofuran]		8.1%	11.5%
				CC(C)(C)c1cc2c(C(C)(C)C)c(O)c(C(C)(C)C)cc2o1 [Compound t, 2,4,6-Tri-tert-Butyl-5-Hydroxybenzofuran]		68.0%	81.7%
				Cc1cc2c(C(C)(C)C)c(O)c(C(C)(C)C)cc2o1 [Compound s, 4,6-Di-tert-Butyl-5-Hydroxy-2-Methylbenzofuran]		39.2%	75.7%
100.3 % of control	104.9 % of control			CC(C)(C)c1cc2c(c(C(C)(C)C)c1O)CC1(CCCCC1)O2 [Compound n, 4,6-Di-tert-Butyl-5-Hydroxy-2,3-Dihydrobenzofuran-2-Spiro-1'-cyclohexane]	9 µM	15.6%	76.2%
84.5 % of control	85.6 % of control			CCCCCC1(CCCCC)Cc2c(cc(C(C)(C)C)c(O)c2C(C)(C)C)O1 [Compound x, 4,6-Di-tert-Butyl-2,2-Di-n-Pentyl-5-Hydroxy-2,3-Dihydrobenzofuran]	5 µM	42.1%	96.3%
				CC1Cc2c(cc(C(C)(C)C)c(O)c2C(C)(C)C)O1 (centres unmarked) [Compound b, 4,6-Di-tert-Butyl-5-Hydroxy-2-Methyl-2,3-Dihydrobenzofuran]		8.9%	53.8%
				CC(C)(C)c1cc2c(c(C(C)(C)C)c1O)CC1(CCCCCC1)O2 [Compound o, 4,6-Di-tert-Butyl-5-Hydroxy-2,3-Dihydrobenzofuran-2-Spiro-1'-Cycloheptane]		9.0%	91.2%
		104.0 % of control	73.4 % of control	CCCc1c2c(c(C(C)(C)C)c(O)c1C(C)(C)C)CC(C)(C)O2 [q, 5-Hydroxy-4,6-Di-tert-Butyl-2,2-Dimethyl-7-Propyl-2,3-Dihydrobenzofuran]	5 µM	56.8%	97.4%
				CC(C)C1(C(C)C)Cc2c(cc(C(C)(C)C)c(O)c2C(C)(C)C)O1 [Compound i, 4,6-Di-tert-Butyl-2,2-Di-i-Propyl-5-Hydroxy-2,3-Dihydrobenzofuran]		10.3%	90.8%
				CCCOc1cc(C(C)(C)C)c(O)c(C(C)(C)C)c1C [Compound u, 2,6-Di-tert-Butyl-3-Methyl-4-Propyloxyphenol]		47.3%	87.7%
				Cc1c(OCCCOc2cc(C(C)(C)C)c(O)c(C(C)(C)C)c2C)cc(C(C)(C)C)c(O)c1C(C)(C)C [Compound w, 1,3-Bis(3,5-Di-tert-Butyl-4-Hydroxy-2-Methylphenoxy)propane]		17.2%	71.3%
88.6 % of control	104.8 % of control	97.0 % of control	76.0 % of control	CCCCCCCCC1Cc2c(cc(C(C)(C)C)c(O)c2C(C)(C)C)O1 (centres unmarked) [Compound g, 4,6-Di-tert-Butyl-5-Hydroxy-2-Octyl-2,3-Dihydrobenzofuran]		8.8%	82.6%
				CC(C)(C)c1c(O)ccc2c1CC(CO)O2 (centres unmarked) [Comparison 3, reference compound]	54 µM		
				CC(C)(C)c1cc2c(c(C(C)(C)C)c1O)CC(c1ccccc1)(c1ccccc1)O2 [Compound j, 4,6-Di-tert-Butyl-2,2-Diphenyl-5-Hydroxy-2,3-Dihydrobenzofuran]		11.6%	93.1%
94.2 % of control	110.2 % of control			CCCCCCCCC1(CCCCCCCC)Cc2c(cc(C(C)(C)C)c(O)c2C(C)(C)C)O1 [Compound y, 4,6-Di-tert-Butyl-2,2-Di-n-Octyl-5-Hydroxy-2,3-Dihydrobenzofuran]		72.3%	85.4%
				CC(C)(C)c1cc2c(c(C(C)(C)C)c1O)CC(Cc1ccccc1)(Cc1ccccc1)O2 [Compound k, 4,6-Di-tert-Butyl-2,2-Dibenzyl-5-Hydroxy-2,3-Dihydrobenzofuran]		11.1%	93.0%
				CC(C)(C)c1cc2c(cc1O)CC(C(C)(C)C)O2 (centres unmarked) [Comparison 4, reference compound]	42 µM		
83.1 % of control	89.8 % of control			CC(C)(C)c1cc2c(c(C(C)(C)C)c1O)CC1(CCCC1)O2 [Compound m, 4,6-Di-tert-Butyl-5-Hydroxy-2,3-Dihydrobenzofuran-2-Spiro-1'-Cyclopentane]	7 µM	11.8%	85.3%
99.2 % of control	107.5 % of control			CC(C)CCC1(CCC(C)C)Cc2c(cc(C(C)(C)C)c(O)c2C(C)(C)C)O1 [Compound z, 2,2-Diisoamyl-4,6-Di-tert-Butyl-5-Hydroxy-2,3-Dihydrobenzofuran]	6 µM	22.9%	77.5%
				CCC1(CC)Cc2c(cc(C(C)(C)C)c(O)c2C(C)(C)C)O1 [Compound d, 4,6-Di-tert-Butyl-2,2-Diethyl-5-Hydroxy-2,3-Dihydrobenzofuran]		9.4%	76.9%
91.0 % of control	102.4 % of control			CCCCC1(CCCC)Cc2c(cc(C(C)(C)C)c(O)c2C(C)(C)C)O1 [Compound f, 4,6-Di-tert-Butyl-2,2-Di-n-Butyl-5-Hydroxy-2,3-Dihydrobenzofuran]	8 µM	12.2%	81.6%
				CC1(C)Cc2c(cc(C(C)(C)C)c(O)c2C(C)(C)C)O1 [Compound c, 5-Hydroxy-4,6-Di-tert-Butyl-2,2-Dimethyl-2,3-Dihydrobenzofuran]	7 µM	9.2%	55.3%
				CC(C)(C)c1cc2c(c(C(C)(C)C)c1O)CC1(CCCCCCC1)O2 [Compound p, 4,6-Di-tert-Butyl-5-Hydroxy-2,3-Dihydrobenzofuran-2-Spiro-1'-Cyclooctane]		22.0%	91.8%
				CCCC1(CCC)Cc2c(cc(C(C)(C)C)c(O)c2C(C)(C)C)O1 [Compound e, 4,6-Di-tert-Butyl-2,2-Di-n-Propyl-5-Hydroxy-2,3-Dihydrobenzofuran]		13.5%	86.3%
